Here are results for 24 compounds from patent US6326386A, “Benzamide derivatives as thrombin inhibitors” (Glaxo Group Limited, priority 1995, dated 2001).

This experiment concerns the target T1, human α-thrombin (Homo sapiens, UniProt P00734).
T1 construct: human α-thrombin
Description: Inhibition of human α-thrombin in a chromogenic assay (N-p-tosyl-gly-pro-lys p-nitroanilide substrate). As to conditions: human α-thrombin 1 nM, substrate 100 μM, pH 7.4, room temperature, 405 nm; preincubation (zero or 15 mins) not given. Type of experiment: biochemical. As to the method:
All dilutions were made in a buffer consisting of: 50 mM HEPES, 150 mM NaCl, 5 mM CaCl2, 0.1% PEG and at pH 7.4. Briefly, the substrate (final conc. of 100 μM) was added to thrombin (final conc. of 1 nM) and the reaction monitored for 10 mins at 405 nm using a Biotek EL340 plate reader; the assay was performed at room temperature. To obtain IC50 s the data were analyzed using Kineticalc® with a 4-parameter curve fitting procedure to obtain the IC50 value.
The compounds of the present invention are thrombin inhibitors. The results below illustrate the thrombin activity of a range of compounds of formula (I) using the previously described biological method: […]
`NC(=O)CCCCCN(Cc1ccco1)C(=O)c1cc(Cl)cc(OCCNc2ccncc2)c1` [Example 138, N-(5-Carbamoyl-pentyl)-3-chloro-N-furan-2-ylmethyl-5-[2-(pyridin-4-ylamino)-ethoxy]-benzamide] came in with an IC50 of 91 nM. As to `O=C(c1cc(Cl)cc(OCCNc2ccncc2)c1)N(CCCCn1cncn1)C1CCCC1` [Example 92, 3-Chloro-N-cyclopentyl-5-[2-(pyridin-4-ylamino)-ethoxy]-N-(4-[1,2,4]triazol-1-yl-butyl)-benzamide], the IC50 is 15 nM. Then `O=C(O)CCCCCN(CC1CCCCC1)C(=O)c1cc(Cl)cc(OCCNc2ccncc2)c1` [Example 124, 6-({3-Chloro-5-[2-(pyridin-4-ylamino)-ethoxy]-benzoyl}-cyclohexylmethyl-amino)-hexanoic acid], with 28 nM.

For `CC(C)N(CCC(N)=O)C(=O)c1cc(Cl)cc(OCCNc2ccncc2)c1` [Example 58, N-(2-Carbamoyl-ethyl)-3-chloro-N-isopropyl-5-[2-(pyridin-4-ylamino)-ethoxy]-benzamide], the IC50 stood at 107 nM. Then `CC(C)CN(Cc1ccc(C(=O)O)cc1)C(=O)c1cc(Cl)cc(OCCNc2ccncc2)c1` [Example 118, 4-[({3-Chloro-5-[2-(pyridin-4-ylamino)-ethoxy]-benzoyl}-isobutyl-amino)-methyl]-benzoic acid], with 10 nM. Then `Cc1cc(OCCNc2ccncc2)cc(C(=O)N(C)C2CCCCC2)c1` [Example 1, N-Cyclohexyl-3, N-dimethyl-5-[2-(pyridin-4-ylamino)-ethoxy]-benzamide], with 8 nM; and `CC(C)N(CCCNS(C)(=O)=O)C(=O)c1cc(Cl)cc(OCCNc2ccncc2)c1` [Example 72, 3-Chloro-N-isopropyl-N-(3-methanesulfonylamino-propyl)-5-[2-(pyridin-4-ylamino)-ethoxy]-benzamide], with 63 nM; and `O=C(c1cc(Cl)cc(OCCNc2ccncc2)c1)N(CCCO)C1CCCC1` [Example 9, 3-Chloro-N-cyclopentyl-N-(3-hydroxy-propyl)-5-[2-(pyridin-4-ylamino)-ethoxy]-benzamide], with 7 nM.

`O=C(CCCN(C(=O)c1cc(Cl)cc(OCCNc2ccncc2)c1)C1CCCC1)N1CCCC1` [Example 20, 3-Chloro-N-cyclopentyl-N-(4-oxo-4-pyrrolidin-1-yl-butyl)-5-[2-(pyridin-4-ylamino)-ethoxy]-benzamide] showed an IC50 of 9 nM. On to `O=C(CCN(C(=O)c1cc(Cl)cc(OCCNc2ccncc2)c1)c1ccccc1)N1CCSCC1` [Example 49, 3-Chloro-N-(3-oxo-3-thiomorpholin-4-yl-propyl)-N-phenyl-5-[2-(pyridin-4-ylamino)-ethoxy]-benzamide], for which the IC50 turned out to be 38 nM. This IC50 is about 4.2-fold higher than that of the compound before. Then `O=C(c1cc(Cl)cc(OCCNc2ccncc2)c1)N(CCn1cncn1)C1CCCC1` [Example 91, 3-Chloro-N-cyclopentyl-5-[2-(pyridin-4-ylamino)-ethoxy]-N-(2-[1,2,4]triazol-1-yl-ethyl)-benzamide], with 34 nM. Then `O=C(c1cc(Cl)cc(OCCNc2ccncc2)c1)N(CCCn1cncn1)c1ccc(F)cc1` [Example 90, 3-Chloro-N-(4-fluoro-phenyl)-5-[2-(pyridin-4-ylamino)-ethoxy]-N-(3-[1,2,4]triazol-1-yl-propyl)-benzamide], with 22 nM; and `CC(C)(C)NC(=O)CCN(C(=O)c1cc(Cl)cc(OCCNc2ccncc2)c1)c1ccccc1` [Example 47, N-(2-tert-Butylcarbamoyl-ethyl)-3-chloro-N-phenyl-5-[2-(pyridin-4-ylamino)ethoxy]-benzamide], with 61 nM; and `O=C(CCCN(C(=O)c1cc(Cl)cc(OCCNc2ccncc2)c1)c1ccccc1F)N1CCCC1` [Example 37, 3-Chloro-N-(2-fluoro-phenyl)-N-(4-oxo-4-pyrrolidin-1-yl-butyl)-5-[2-(pyridin-4-ylamino)-ethoxy]-benzamide], with 17 nM. Then `CC(C)N(CCc1noc(O)n1)C(=O)c1cc(Cl)cc(OCCNc2ccncc2)c1` [Example 109], with 140 nM; and `CCOC(=O)CCCN(C(=O)c1cc(Cl)cc(OCCNc2ccncc2)c1)C1CCCC1` [Example 17, 4-({3-Chloro-5-[2-(pyridin-4-ylamino)-ethoxy]-benzoyl}-cyclopentyl-amino)-butyric acid ethyl ester], with 14 nM.

Take `CCCN(C(=O)c1cc(Cl)cc(OCCNc2ccncc2)c1)c1cc(F)cc(F)c1` [Example 29, 3-Chloro-N-(3,5-difluoro-phenyl)-N-propyl-5-[2-(pyridin-4-ylamino)-ethoxy]-benzamide]: the IC50 was 62 nM. Then `O=C(c1cc(Cl)cc(OCCNc2ccncc2)c1)N(CCOCC(O)CO)c1ccccc1` (stereo not drawn) [Example 41, 3-Chloro-N-[2-(2,3-dihydroxy-propoxy)-ethyl]-N-phenyl-5-[2-(pyridin-4-ylamino)-ethoxy]-benzamide], with 28 nM; and `NC(=O)CCN(CC1CC1)C(=O)c1cc(Cl)cc(OCCNc2ccncc2)c1` [Example 55, N-(2-Carbamoyl-ethyl)-3-chloro-N-cyclopropylmethyl-5-[2-(pyridin-4-ylamino)-ethoxy]-benzamide], with 50 nM. Then `O=C(c1cc(Cl)cc(OCCNc2ccncc2)c1)N(CCCc1nnn[nH]1)c1ccccc1F` [Example 40, 3-Chloro-N-(2-fluoro-phenyl)-5-[2-(pyridin-4-ylamino)-ethoxy]-N-[3-(1H-tetrazol-5-yl)-propyl]-benzamide], with 9 nM.

`O=C(O)CCCN(C(=O)c1cc(Cl)cc(OCCNc2ccncc2)c1)C1CCC1` [Example 128, 4-({3-Chloro-5-[2-(pyridin-4-ylamino)-ethoxy]-benzol}-cyclobutyl-amino)-butyric acid] displayed an IC50 of 41 nM. The compound `C=CCN(C(=O)c1cc(Cl)cc(OCCNc2ccncc2)c1)C1CCCC1` [Example 6, N-Allyl-3-chloro-N-cyclopentyl-5-[2-(pyridin-4-ylamino)-ethoxy]-benzamide] gave an IC50 of 5 nM.

`COCCN(C(=O)c1cc(Cl)cc(OCCNc2ccncc2)c1)C(C)C` [Example 99, 3-Chloro-N-isopropyl-N-(2-methoxy-ethyl)-5-[2-(pyridin-4-ylamino)-ethoxy]-benzamide] returned an IC50 of 40 nM.

With `O=C(c1cc(Cl)cc(OCCNc2ccncc2)c1)N(CCCN1CCOCC1)C1CCCC1` [Example 13, 3-Chloro-N-cyclopentyl-N-(3-morpholin-4-yl-propyl)-5-[2-(pyridin-4-ylamino)-ethoxy]-benzamide], the midpoint of inhibition, the IC50, lay at 15 nM.
